# Several values for one entry are separate records, joined by “and”; a condition that tells them apart may be missing. Identical values can stand only once.
# Legend:
# [1] = target: T1, E. coli RdrA (EcRdrA) (Escherichia coli, UniProt A0AAN0NNX5); assay: malachite green phosphate release (NTPase); assay type: biochemical; details: 1 mM NTP, 5 μM RdrA, 2 h, pH 7.5, 10 mM MgCl2, 50 mM KCl, 1 mM TCEP
# T1 construct: full-length, N-terminal 6xHis-SUMO2 tag removed by SENP2, expressed in E. coli BL21-RIL; heptamer, active site between neighbouring subunits; Walker A G81, K82, T83, Walker B D221, D222
# T1 sequence (A0AAN0NNX5 1-947): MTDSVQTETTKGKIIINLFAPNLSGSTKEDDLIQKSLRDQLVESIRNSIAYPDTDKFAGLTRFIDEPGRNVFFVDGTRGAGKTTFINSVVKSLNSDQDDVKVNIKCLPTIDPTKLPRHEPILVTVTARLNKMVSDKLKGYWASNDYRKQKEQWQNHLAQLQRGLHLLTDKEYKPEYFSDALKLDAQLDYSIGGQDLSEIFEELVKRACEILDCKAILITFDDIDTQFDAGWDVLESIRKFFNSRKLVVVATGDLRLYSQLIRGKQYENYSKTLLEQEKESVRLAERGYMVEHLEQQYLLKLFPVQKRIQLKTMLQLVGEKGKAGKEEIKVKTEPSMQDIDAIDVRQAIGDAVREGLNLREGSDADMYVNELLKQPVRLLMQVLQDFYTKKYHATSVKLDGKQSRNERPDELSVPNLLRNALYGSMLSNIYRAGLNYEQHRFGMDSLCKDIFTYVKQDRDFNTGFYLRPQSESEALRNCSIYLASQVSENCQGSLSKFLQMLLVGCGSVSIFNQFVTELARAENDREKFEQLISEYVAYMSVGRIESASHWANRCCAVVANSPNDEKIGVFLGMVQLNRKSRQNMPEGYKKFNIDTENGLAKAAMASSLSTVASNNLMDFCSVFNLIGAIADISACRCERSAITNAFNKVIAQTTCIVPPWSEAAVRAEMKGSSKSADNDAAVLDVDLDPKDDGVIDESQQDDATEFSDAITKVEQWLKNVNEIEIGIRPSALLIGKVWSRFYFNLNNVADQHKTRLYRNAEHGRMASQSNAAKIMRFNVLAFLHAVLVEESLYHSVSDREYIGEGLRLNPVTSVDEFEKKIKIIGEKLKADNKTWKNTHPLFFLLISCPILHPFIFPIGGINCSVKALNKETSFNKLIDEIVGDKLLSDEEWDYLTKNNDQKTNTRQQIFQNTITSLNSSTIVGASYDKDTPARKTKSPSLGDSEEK
# [2] = target: T2, E. coli RdrB (EcRdrB) (Escherichia coli, UniProt A0AAN0NNX4); assay: HPLC deamination assay (ATP to ITP) after phosphatase treatment; assay type: biochemical; details: 1 mM substrate, 1 μM RdrB, 30 min, 37 °C, pH 7.5, 10 mM MgCl2, 100 μM ZnSO4, 50 mM KCl, 1 mM TCEP
# T2 construct: full-length, ~90 kDa, N-terminal 6xHis-SUMO2 tag removed by SENP2, expressed in E. coli BL21-RIL; dodecamer; Zn site H152, H154, H498, H530, catalytic E501
# T2 sequence (A0AAN0NNX4 1-799): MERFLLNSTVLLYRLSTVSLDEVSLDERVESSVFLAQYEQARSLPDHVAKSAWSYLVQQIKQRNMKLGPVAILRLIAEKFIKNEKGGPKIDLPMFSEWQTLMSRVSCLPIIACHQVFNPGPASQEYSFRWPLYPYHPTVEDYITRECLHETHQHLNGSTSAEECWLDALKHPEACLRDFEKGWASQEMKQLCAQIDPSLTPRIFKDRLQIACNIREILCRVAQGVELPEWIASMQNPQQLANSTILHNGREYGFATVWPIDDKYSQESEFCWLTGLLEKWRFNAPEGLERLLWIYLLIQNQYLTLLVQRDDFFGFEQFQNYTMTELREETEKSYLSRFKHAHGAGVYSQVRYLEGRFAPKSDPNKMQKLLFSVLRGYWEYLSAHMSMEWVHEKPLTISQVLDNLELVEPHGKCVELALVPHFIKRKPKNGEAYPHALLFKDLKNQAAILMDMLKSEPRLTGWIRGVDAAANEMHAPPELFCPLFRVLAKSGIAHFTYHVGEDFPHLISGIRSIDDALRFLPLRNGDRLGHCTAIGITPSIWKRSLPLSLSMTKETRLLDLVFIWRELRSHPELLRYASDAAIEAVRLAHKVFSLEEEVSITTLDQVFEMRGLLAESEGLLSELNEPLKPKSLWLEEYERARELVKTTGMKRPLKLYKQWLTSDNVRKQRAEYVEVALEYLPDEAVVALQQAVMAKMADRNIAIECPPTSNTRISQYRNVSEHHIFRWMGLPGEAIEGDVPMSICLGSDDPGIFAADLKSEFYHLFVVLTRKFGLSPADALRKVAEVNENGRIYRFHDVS
# [3] = target: T2, E. coli RdrB (EcRdrB); assay: HPLC deamination assay (dATP to dITP) after phosphatase treatment; assay type: biochemical; details: 1 mM substrate, 1 μM RdrB, 30 min, 37 °C, pH 7.5, 10 mM MgCl2, 100 μM ZnSO4, 50 mM KCl, 1 mM TCEP
# [4] = target: E. coli RdrA (RADAR system of E. coli P0304799.3) (E. coli P0304799.3); assay: cryo-EM structure; purified E. coli RdrA alone, 2.40 mg/mL, vitrified at 4°C; Titan Krios 300 kV
# [5] = target: E. coli RdrB (RADAR system of E. coli P0304799.3) (E. coli P0304799.3); assay: cryo-EM structure; purified E. coli RdrB alone, 2.35 mg/mL, vitrified at 4°C; Titan Krios 300 kV
# [6] = target: S. suis RdrA (RADAR system of Streptococcus suis SS993) (Streptococcus suis SS993); assay: cryo-EM structure; purified S. suis RdrA alone; Talos Arctica 200 kV; single heptameric rings and double stacked rings picked
compound,measurement,setting,value
Nc1ncnc2c1ncn2[C@@H]1O[C@H](COP(=O)(O)OP(=O)(O)OP(=O)(O)O)[C@@H](O)[C@H]1O [ATP],malachite green phosphate release (NTPase),[1],RdrA is an active ATPase in vitro that preferentially hydrolyzes ATP
same,HPLC deamination assay (ATP to ITP) after phosphatase treatment,[2],E. coli RdrB robustly deaminates both ATP and dATP substrates with equal efficiency
O=c1[nH]cnc2c1ncn2[C@@H]1O[C@H](COP(=O)(O)OP(=O)(O)OP(=O)(O)O)[C@@H](O)[C@H]1O [ITP],malachite green phosphate release (NTPase),[1]; weak substrate,"Compared with ATP, RdrA only weakly hydrolyzes ITP and GTP"
Nc1ncnc2c1ncn2[C@H]1C[C@H](O)[C@@H](COP(=O)(O)OP(=O)(O)OP(=O)(O)O)O1 [dATP],HPLC deamination assay (dATP to dITP) after phosphatase treatment,[3],E. coli RdrB robustly deaminates both ATP and dATP substrates with equal efficiency
E. coli RdrA (RADAR system of E. coli P0304799.3) (enzyme),stoichiometry N,[4],7
E. coli RdrB (RADAR system of E. coli P0304799.3) (enzyme),stoichiometry N,[5],12
S. suis RdrA (RADAR system of Streptococcus suis SS993) (enzyme),stoichiometry N,[6],7 and 14

# From PMC9994260, “Cryo-EM structure of the RADAR supramolecular anti-phage defense complex” (Cell, 2023)
